In PMC10950880, “The RsfSR two-component system regulates SigF function by monitoring the state of the respiratory electron transport chain in Mycobacterium smegmatis” (The Journal of Biological Chemistry, 2024):

What was measured:
[1] = molecular target: T1, RsfSTr (truncated RsfS, MSMEG_6130) (Mycolicibacterium smegmatis, UniProt A0R5B3); test: autophosphorylation and phosphotransfer to RsfR, Phos-tag SDS-PAGE; assay type: biochemical; conditions: 1 mM ATP, 300 mM Tris-HCl pH 8, 50 mM KCl, 10 mM MgCl2, 30 C; covalent
T1 construct: kinase domain only (amino acids 190-525), lacks CHASE3 and N-terminal region; C-terminal His6 kept; from E. coli BL21; partially purified
T1 sequence (A0R5B3 entry or part of it): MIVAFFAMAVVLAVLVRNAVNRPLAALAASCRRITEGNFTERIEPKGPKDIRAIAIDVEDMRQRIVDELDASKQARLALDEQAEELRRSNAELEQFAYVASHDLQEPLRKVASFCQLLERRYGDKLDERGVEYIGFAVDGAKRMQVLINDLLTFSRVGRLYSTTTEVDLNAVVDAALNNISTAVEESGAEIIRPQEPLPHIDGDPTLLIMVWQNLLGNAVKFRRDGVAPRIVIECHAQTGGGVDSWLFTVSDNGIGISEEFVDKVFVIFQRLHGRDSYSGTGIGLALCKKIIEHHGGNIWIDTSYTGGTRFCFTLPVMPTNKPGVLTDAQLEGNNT

[2] = molecular target: T2, RsfR (MSMEG_6131) (Mycolicibacterium smegmatis, UniProt A0R5B4); test: phosphorylation of RsfR by acetyl phosphate (Phos-tag SDS-PAGE); RsfR then tested on P-RsfB; assay type: biochemical; conditions: 40 mM acetyl phosphate, 300 mM Tris-HCl pH 8.0, 50 mM KCl, 10 mM MgCl2, no ATP, 30 C; phosphodonor, covalent
T2 construct: C-terminal His6 kept; from E. coli BL21 (DE3), pT7-7rsfR
T2 sequence (A0R5B4 1-402): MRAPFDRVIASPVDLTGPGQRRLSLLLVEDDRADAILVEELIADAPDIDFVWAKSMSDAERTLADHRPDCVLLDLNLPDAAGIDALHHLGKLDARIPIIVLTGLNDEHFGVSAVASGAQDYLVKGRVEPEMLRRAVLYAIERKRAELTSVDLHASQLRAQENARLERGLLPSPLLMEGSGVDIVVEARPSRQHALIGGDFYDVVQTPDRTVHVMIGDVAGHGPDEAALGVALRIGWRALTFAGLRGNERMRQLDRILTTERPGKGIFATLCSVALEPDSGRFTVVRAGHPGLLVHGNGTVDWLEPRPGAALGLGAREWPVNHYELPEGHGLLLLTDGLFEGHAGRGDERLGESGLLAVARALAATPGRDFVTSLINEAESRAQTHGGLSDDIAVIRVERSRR

Structure (SMILES)	autophosphorylation and phosphotransfer to RsfR, Phos-tag SDS-PAGE [1]	RsfR phosphorylation by acetyl phosphate [2]
Nc1ncnc2c1ncn2[C@@H]1O[C@H](COP(=O)(O)OP(=O)(O)OP(=O)(O)O)[C@@H](O)[C@H]1O [ATP]	RsfSTr was autophosphorylated in the reaction mixture	–
CC(=O)OP(=O)(O)O [acetyl phosphate]	–	Acetyl phosphate phosphorylated purified RsfR less efficiently than RsfSTr
